Results published in patent US20240360082A1, “SUBSTITUTED PYRIDONE COMPOUNDS USEFUL TO TREAT ORTH[…]” (priority 2021, published 2024).
Where two headings read alike, the source gives them in different places.

Target: influenza A virus minigenome (PB2, PB1, PA, NP proteins) (UniProt P04665)
Type: cell-based

influenza A virus minigenome (PB2, PB1, PA, NP proteins), sequence (P04665 whole entry): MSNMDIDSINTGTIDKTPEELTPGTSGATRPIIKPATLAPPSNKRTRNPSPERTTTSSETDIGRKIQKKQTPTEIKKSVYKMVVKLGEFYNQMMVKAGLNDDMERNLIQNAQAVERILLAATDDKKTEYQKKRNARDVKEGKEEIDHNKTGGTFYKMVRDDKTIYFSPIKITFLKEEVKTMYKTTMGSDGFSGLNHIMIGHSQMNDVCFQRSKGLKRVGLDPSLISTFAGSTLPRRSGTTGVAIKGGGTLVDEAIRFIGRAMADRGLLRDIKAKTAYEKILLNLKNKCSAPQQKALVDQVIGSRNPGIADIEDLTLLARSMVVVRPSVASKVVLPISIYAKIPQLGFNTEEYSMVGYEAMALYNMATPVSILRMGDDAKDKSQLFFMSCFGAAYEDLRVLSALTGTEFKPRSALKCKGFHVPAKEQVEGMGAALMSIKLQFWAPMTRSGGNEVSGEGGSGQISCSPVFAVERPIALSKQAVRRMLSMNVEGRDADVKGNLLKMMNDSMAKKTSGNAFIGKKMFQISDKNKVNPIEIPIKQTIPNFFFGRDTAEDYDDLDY

SMILES | IC50 (read-out: RNP_ Hubei B IC50) [µM] | IC50 (read-out: RNP_Hubei B) [µM]
CCc1cc(COc2ccc(-c3cc(C(N)=O)c(=O)[nH]c3C(F)(F)F)cc2)n(C)n1 [Example 262, 5-(4-((3-ethyl-1-methyl-1H-pyrazol-5-yl)methoxy)phenyl)-2-oxo-6-(trifluoromethyl)-1,2-dihydropyridine-3-carboxamide] | 25 to 50 | 
Cn1nc(C2CC2)cc1COc1ccc(-c2cc(C(N)=O)c(=O)[nH]c2C(F)(F)F)cc1 [Example 263, 5-(4-((3-cyclopropyl-1-methyl-1H-pyrazol-5-yl)methoxy)phenyl)-2-oxo-6-(trifluoromethyl)-1,2-dihydropyridine-3-carboxamide] | 25 to 50 | 
NC(=O)c1cc(-c2ccc(OCc3ccnn3CC3CC3)cc2)c(C(F)(F)F)[nH]c1=O [Example 265, 5-(4-((1-(cyclopropylmethyl)-1H-pyrazol-5-yl)methoxy)phenyl)-2-oxo-6-(trifluoromethyl)-1,2-dihydropyridine-3-carboxamide] | 25 to 50 | 
NC(=O)c1cc(-c2ccc(OCc3cocn3)cc2)c(C(F)(F)F)[nH]c1=O [Example 266, 5-(4-(oxazol-4-ylmethoxy)phenyl)-2-oxo-6-(trifluoromethyl)-1,2-dihydropyridine-3-carboxamide] | 25 to 50 | 
NC(=O)c1cc(-c2ccc(OCc3cnco3)cc2)c(C(F)(F)F)[nH]c1=O [Example 267, 5-(4-(oxazol-5-ylmethoxy)phenyl)-2-oxo-6-(trifluoromethyl)-1,2-dihydropyridine-3-carboxamide] | 25 to 50 | 
NC(=O)c1cc(-c2ccc(OCc3cc(C4CC4)on3)cc2)c(C(F)(F)F)[nH]c1=O [Example 268, 5-(4-((5-cyclopropylisoxazol-3-yl)methoxy)phenyl)-2-oxo-6-(trifluoromethyl)-1,2-dihydropyridine-3-carboxamide] | 25 to 50 | 
Cc1oncc1COc1ccc(-c2cc(C(N)=O)c(=O)[nH]c2C(F)(F)F)cc1 [Example 269, 5-(4-((5-methylisoxazol-4-yl)methoxy)phenyl)-2-oxo-6-(trifluoromethyl)-1,2-dihydropyridine-3-carboxamide] | 25 to 50 | 
Cc1onc(-c2ccncc2)c1COc1ccc(-c2cc(C(N)=O)c(=O)[nH]c2C(F)(F)F)cc1 [Example 270, 5-(4-((5-methyl-3-(pyridin-4-yl)isoxazol-4-yl)methoxy)phenyl)-2-oxo-6-(trifluoromethyl)-1,2-dihydropyridine-3-carboxamide] | 25 to 50 | 
Cc1ncc(COc2ccc(-c3cc(C(N)=O)c(=O)[nH]c3C(F)(F)F)cc2)s1 [Example 271, 5-(4-((2-methylthiazol-5-yl)methoxy)phenyl)-2-oxo-6-(trifluoromethyl)-1,2-dihydropyridine-3-carboxamide] | 25 to 50 | 
Cc1ncsc1COc1ccc(-c2cc(C(N)=O)c(=O)[nH]c2C(F)(F)F)cc1 [Example 272, 5-(4-((4-methylthiazol-5-yl)methoxy)phenyl)-2-oxo-6-(trifluoromethyl)-1,2-dihydropyridine-3-carboxamide] | 25 to 50 | 
Cc1nnsc1COc1ccc(-c2cc(C(N)=O)c(=O)[nH]c2C(F)(F)F)cc1 [Example 273, 5-(4-((4-methyl-1,2,3-thiadiazol-5-yl)methoxy)phenyl)-2-oxo-6-(trifluoromethyl)-1,2-dihydropyridine-3-carboxamide] | 10 to 25 | 
Cc1cncc(COc2ccc(-c3cc(C(N)=O)c(=O)[nH]c3C(F)(F)F)cc2)n1 [Example 283, 5-(4-((6-methylpyrazin-2-yl)methoxy)phenyl)-2-oxo-6-(trifluoromethyl)-1,2-dihydropyridine-3-carboxamide] | 5 to 10 | 
NC(=O)c1cc(-c2ccc(OCc3cnc4ccccn34)cc2)c(C(F)(F)F)[nH]c1=O [Example 286, 5-(4-(imidazo[1,2-a]pyridin-3-ylmethoxy)phenyl)-2-oxo-6-(trifluoromethyl)-1,2-dihydropyridine-3-carboxamide] | 25 to 50 | 
CC1(C)CC[C@@H](COc2ccc(-c3cc(C(N)=O)c(=O)[nH]c3C(F)(F)F)cc2)O1 [Example 300, (S)-5-(4-((5,5-dimethyltetrahydrofuran-2-yl)methoxy)phenyl)-2-oxo-6-(trifluoromethyl)-1,2-dihydropyridine-3-carboxamide] | 10 to 25 | 
CC(C)(C)OC(=O)N1CCC(COc2ccc(-c3cc(C(N)=O)c(=O)[nH]c3C(F)(F)F)cc2)C1 (centres unmarked) [Example 302, Tert-butyl 3-((4-(5-carbamoyl-6-oxo-2-(trifluoromethyl)-1,6-dihydropyridin-3-yl)phenoxy)methyl)pyrrolidine-1-carboxylate] | 25 to 50 | 
CC1CN(C(=O)OC(C)(C)C)CC1COc1ccc(-c2cc(C(N)=O)c(=O)[nH]c2C(F)(F)F)cc1 (centres unmarked) [Example 303, Tert-butyl 3-((4-(5-carbamoyl-6-oxo-2-(trifluoromethyl)-1,6-dihydropyridin-3-yl)phenoxy)methyl)-4-methylpyrrolidine-1-carboxylate] | 10 to 25 | 

SMILES | IC50 (read-out: RNP_ Hubei B IC50) [µM] | IC50 (read-out: RNP_Hubei B) [µM]
CC(C)(C)OC(=O)N1C[C@H](F)C[C@H]1COc1ccc(-c2cc(C(N)=O)c(=O)[nH]c2C(F)(F)F)cc1 [Example 305, Tert-butyl (2S,4R)-2-((4-(5-carbamoyl-6-oxo-2-(trifluoromethyl)-1,6-dihydropyridin-3-yl)phenoxy)methyl)-4-fluoropyrrolidine-1-carboxylate] | 25 to 50 | 
CC(C)(C)OC(=O)N1C[C@@H](F)C[C@H]1COc1ccc(-c2cc(C(N)=O)c(=O)[nH]c2C(F)(F)F)cc1 [Example 306, tert-butyl (2S,4S)-2-((4-(5-carbamoyl-6-oxo-2-(trifluoromethyl)-1,6-dihydropyridin-3-yl)phenoxy)methyl)-4-fluoropyrrolidine-1-carboxylate] | 5 to 10 | 
NC(=O)c1cc(-c2ccc(OCC3COCCOC3)cc2)c(C(F)(F)F)[nH]c1=O [Example 320, 5-(4-((1,4-dioxepan-6-yl)methoxy)phenyl)-2-oxo-6-(trifluoromethyl)-1,2-dihydropyridine-3-carboxamide] | 5 to 10 | 
CC1(COc2ccc(-c3cc(C(N)=O)c(=O)[nH]c3C(F)(F)F)cc2)COCCOC1 [Example 321, 5-(4-((6-methyl-1,4-dioxepan-6-yl)methoxy)phenyl)-2-oxo-6-(trifluoromethyl)-1,2-dihydropyridine-3-carboxamide] | 5 to 10 | 
NC(=O)c1cc(-c2ccc(OC[C@H]3COC[C@@H](C4CC4)O3)cc2)c(C(F)(F)F)[nH]c1=O [Example 325, 5-(4-(((2R,6R)-6-cyclopropyl-1,4-dioxan-2-yl)methoxy)phenyl)-2-oxo-6-(trifluoromethyl)-1,2-dihydropyridine-3-carboxamide] | 10 to 25 | 
NC(=O)c1cc(-c2ccc(OC[C@H]3COC[C@H](C4CC4)O3)cc2)c(C(F)(F)F)[nH]c1=O [Example 327, 5-(4-(((2R,6S)-6-cyclopropyl-1,4-dioxan-2-yl)methoxy)phenyl)-2-oxo-6-(trifluoromethyl)-1,2-dihydropyridine-3-carboxamide] | 5 to 10 | 
C[C@@H]1COC[C@H](COc2ccc(-c3cc(C(N)=O)c(=O)[nH]c3C(F)(F)F)cc2)O1 [Example 328, 5-(4-(((2R,6R)-6-methyl-1,4-dioxan-2-yl)methoxy)phenyl)-2-oxo-6-(trifluoromethyl)-1,2-dihydropyridine-3-carboxamide] | 10 to 25 | 
C[C@@H]1COC[C@@H](COc2ccc(-c3cc(C(N)=O)c(=O)[nH]c3C(F)(F)F)cc2)O1 [Example 329, 5-(4-(((2S,6R)-6-methyl-1,4-dioxan-2-yl)methoxy)phenyl)-2-oxo-6-(trifluoromethyl)-1,2-dihydropyridine-3-carboxamide] | 25 to 50 | 
C[C@H]1COC[C@@H](COc2ccc(-c3cc(C(N)=O)c(=O)[nH]c3C(F)(F)F)cc2)O1 [Example 330, 5-(4-(((2S,6S)-6-methyl-1,4-dioxan-2-yl)methoxy)phenyl)-2-oxo-6-(trifluoromethyl)-1,2-dihydropyridine-3-carboxamide] | 25 to 50 | 
C[C@H]1COC[C@H](COc2ccc(-c3cc(C(N)=O)c(=O)[nH]c3C(F)(F)F)cc2)O1 [Example 331, 5-(4-(((2R,6S)-6-methyl-1,4-dioxan-2-yl)methoxy)phenyl)-2-oxo-6-(trifluoromethyl)-1,2-dihydropyridine-3-carboxamide] | 10 to 25 | 
NC(=O)c1cc(-c2ccc(OCC3COCc4c(C5CC5)nnn43)cc2)c(C(F)(F)F)[nH]c1=O (centres unmarked) [Example 381, 5-(4-((3-cyclopropyl-6,7-dihydro-4H-[1,2,3]triazolo[5,1-c][1,4]oxazin-7-yl)methoxy)phenyl)-2-oxo-6-(trifluoromethyl)-1,2-dihydropyridine-3-carboxamide] | 5 to 10 | 
COC(C)(C)C1COCC(COc2ccc(-c3cc(C(N)=O)c(=O)[nH]c3C(F)(F)F)cc2)O1 (centres unmarked) [Example 382, 5-(4-((6-(2-methoxypropan-2-yl)-1,4-dioxan-2-yl)methoxy)phenyl)-2-oxo-6-(trifluoromethyl)-1,2-dihydropyridine-3-carboxamide] | 5 to 10 | 
NC(=O)c1cc(-c2ccc(OCC3COCC(CO)O3)cc2)c(C(F)(F)F)[nH]c1=O (centres unmarked) [Example 384, 5-(4-((6-(hydroxymethyl)-1,4-dioxan-2-yl)methoxy)phenyl)-2-oxo-6-(trifluoromethyl)-1,2-dihydropyridine-3-carboxamide] | 5 to 10 | 
NC(=O)c1cc(-c2ccc(OCC3(F)COCCO3)cc2)c(C(F)(F)F)[nH]c1=O (centres unmarked) [Example 388, 5-(4-((2-fluoro-1,4-dioxan-2-yl)methoxy)phenyl)-2-oxo-6-(trifluoromethyl)-1,2-dihydropyridine-3-carboxamide] | 5 to 10 | 
NC(=O)c1cc(-c2ccc(OC(F)(F)C3COCCO3)cc2)c(C(F)(F)F)[nH]c1=O (centres unmarked) [Example 389, 5-(4-((1,4-dioxan-2-yl)difluoromethoxy)phenyl)-2-oxo-6-(trifluoromethyl)-1,2-dihydropyridine-3-carboxamide] |  | 5 to 10
NC(=O)c1cc(-c2ccc(OCC3CO[C@@H]4[C@H](O3)C4(F)F)cc2)c(C(F)(F)F)[nH]c1=O (stereo partly drawn) [Example 390, 5-(4-((cis-7,7-difluoro-2,5-dioxabicyclo[4.1.0]heptan-3-yl)methoxy)phenyl)-2-oxo-6-(trifluoromethyl)-1,2-dihydropyridine-3-carboxamide] | 1 to 5 | 
